Assay results as given in patent publication US8044098B2, “Use of hydroxybenzoic acids and their esters and analogues for preventing or treating virus infection” (Shenghua Guangzhou Pharmaceutical Science & Technology Co., …, priority 2005, dated 2011).

Columns and labels:
[1] = assay type: physicochemical
Experimental: 20 ml 1,2-propylene glycol, 15 ml Tween-80 and 5 ml azone were mixed together and sterile distilled water was added to bring the volume to 100 ml. The pH value of the solution was adjusted to pH 6.8 with NaOH or HCl to obtain a micro emulsion. 10 g propyl gallate and 10 g gallic acid were dissolved in the micro emulsion, respectively, and mixed well. 10 ml of each micro emulsion was added to a capped transparent glass tube. Both solutions were colorless. The absorbance of the two solutions at 400˜500 nm was measured with spectrophotometry and their absorbance was under 0.15. […] Measured by spectrophotometry again, the absorbance of the gallic acid solution was 1.2 and that of the propyl gallate solution was 0.4.

HPV 16/18 = assay: Drug screening by quantitative fluorescent PCR analysis of HPV 16/18 in condyloma acuminata homogenate; design: species or system human papillomavirus (HPV)
[2] = system: secretion of HBsAg by 2.2.15 cells; assay: Inhibition of secretion of HBsAg by Hepatitis B 2.2.15 cell line; assay type: cell-based, HBV; conditions: 1 μmol/ml
Source text: (§1) Hepatitis B 2.2.15 cell line was transfected by HBV DNA (purchased from Institute of Biochemistry and Cell Biology of Shanghai Institute for Biological Sciences or the National Center for Drug Screening) and used as the cell model for screening anti-HBV drug compounds (See Chinese Journal Of Integrated Traditional and Western Medicine on Liver Diseases, 2004, 14(3): 158). The cell culture medium DMEM (GIBCO Company), bovine serum (Hangzhou Siji Qing Biochemical Manufacturer), G418 (GIBCO Company), 3-(4,5-dimethylthiazol-2-yl)-2,5-diphenyltetrazoliumbromide (Sigma), HBsAg and HBeAg diagnostic kit (Shanghai Kehua Bio-engineering Co., Ltd).
(§2) The test compounds listed in Table 3 below were dissolved in a mixture containing 20 ml 1,2-propylene glycol and 15 ml Tween-80 and diluted with sterile saline water to 2 μmol/ml of the test compound. Then it was mixed with the cell culture medium at equal volume to obtain a solution containing 1 μmol/ml of the tested compound. Cells at the concentration of 1×10^5 cells per milliliter were inoculated to a 24-well plate at 1 ml/well. Supernatant from the cell culture mixture was collected three days later for testing.

[3] = system: secretion of HBeAg by 2.2.15 cells; assay: Inhibition of secretion of HBeAg by Hepatitis B 2.2.15 cell line; assay type: cell-based, HBV; conditions: 1 μmol/ml
Source text: as §1, §2

[4] = 2.2.15 cells, supernatant collected three days later

CCCOC(=O)c1cc(O)c(O)c(O)c1 [Propyl gallate]
colour of solution, initial ([1]; micro emulsion pH 6.8, freshly prepared): colorless
absorbance after 30 days ([1]; micro emulsion pH 6.8, kept at room temperature for 30 days, 400˜500 nm): 0.4
colour of solution after 30 days ([1]; micro emulsion pH 6.8, room temperature for 30 days): remained colorless
HPV 16/18 Virus (copies/ml) (HPV 16/18; 50 μl 10% micro emulsion + 50 μl HPV sample homogenate, 37° C., 24 hours, saline control 1.40 × 10^5): 0 copies/ml
HPV 16/18 detected by FQ-PCR (in words) (HPV 16/18; 24 hours after adding the test compound): no HPV 6/11 or HPV 16/18 was detected
effect on the secretion of HBsAg by the 2.2.15 cells (in words) [2]: had inhibition effect
inhibition of HBsAg secretion compared with gallic acid and 3,4-dihydroxybenzoic acid [2]: more effective
HBsAg Inhibition rate [2, 4]: 18.83%
effect on the secretion of HBeAg by the 2.2.15 cells (in words) [3]: had inhibition effect
inhibition of HBeAg secretion compared with gallic acid and 3,4-dihydroxybenzoic acid [3]: more effective
HBeAg Inhibition Rate [3, 4]: 12.04%
